Each compound was assayed against CDK1 (p34 cdc2)/cyclin B (assay: CDK inhibition assay (histone H1 kinase), CDK1). Conditions: CDK1; Table 1.
Format: biochemical, starfish (Marthasterias glacialis)
Protocol: By way of example, however, a typical protocol is summarised below.
Histone H1 (type III-S (Sigma) 4° C.) 5 mg/ml in buffer C.
[^32 P]ATP […]: Make up using (multiples of) the following proportions:
DMSO cannot exceed 1% in the assay mixture. Inhibitors are added at 1/10 final assay volume and 10×final strength. DMSO stocks must therefore be diluted to 10×final desired concentration in ≤10% DMSO, ≥90% buffer C.
Start reaction in each tube at 30 second intervals by adding
5 ml [^32 P]ATP vortexing and placing in rack in waterbath at 30° C.
Terminate reaction after 10 min at 30 second intervals in tubes in same order by removing
25 ml reaction mix and spotting onto appropriately labelled filter, allowing to dry for 20-30 seconds and transferring to stirring 1% phosphoric acid.
Blank incubation is performed as above but without histone (add […] buffer C instead) Washing blank is […] ATP added directly to filter.
For `c1nc(OCC2CCCCO2)c2[nH]cnc2n1` (stereo not drawn) [NU2014, 6-(2-tetrahydropyranyl-methyloxy)purine], the IC50 was greater than 100 µM.
For `CC(=O)COc1nc(N)nc2[nH]cnc12` [NU2035, O^6-(2-Oxopropyl)guanine], the IC50 was 100 µM.
Compound `CCCOc1nc(N)nc2nc[nH]c12` [NU2045, 2-amino-6-propoxypurine] has an IC50 of 50 µM.
For `CCOC(C)(COc1nc(N)nc2[nH]cnc12)OCC` [NU2032, 2-amino-6-(2,2-diethoxy) propoxypurine], the IC50 was greater than 100 µM.
Work on `CC(C)C1(COc2nc(N)nc3[nH]cnc23)OCCO1` [NU2057, O^6-(3-Methyl-2-oxobutyl)guanine ethylene acetal] yielded an IC50 of 105 µM.
`c1ccc(CCOc2ncnc3nc[nH]c23)cc1` [NU2023, 6-(2-Phenylethyloxy)purine] gave an IC50 of 130 µM.
Compound `C=C(COc1nc(N)nc2[nH]cnc12)C(C)C` [NU2055, O^6-(2-Isopropylallyl)guanine] has an IC50 of 13 µM.
`C=CCOc1nc(N(C)C)nc2nc[nH]c12` [NU2048, 2-(N,N-dimethyl)amino-6-allyloxypurine] showed an IC50 of 22 µM.
Work on `C=CCOc1nc(N)nc2c1ncn2Cc1ccccc1` [NU2038, O^6 -Allyl-N^9 -benzylguanine] yielded an IC50 greater than 1000 µM.
Compound `C=C(CC)COc1nc(N)nc2[nH]cnc12` [NU2054, O^6-(2-Ethylallyl)guanine] has an IC50 of 20 µM.
`Nc1nc(OCc2ccco2)c2nc[nH]c2n1` [2-amino-6-(2-furanyl)-methyloxypurine] gave an IC50 of 75 µM.
With `Nc1nc(OCC2=CCCC2)c2nc[nH]c2n1` [NU2074, O^6-(1'-Cyclopentenyl)methylguanine] the IC50 was 7 µM.
Compound `COc1nc(N)nc2nc[nH]c12` [NU2004, 2-amino-6-methoxypurine] has an IC50 of 200 µM.
In the case of `C=CCCCCOc1nc(N)nc2[nH]cnc12` [NU2061, O^6-(5'-Hexenyl)guanine], the IC50 is reported as 12 µM.
Work on `CC/C=C/CCOc1nc(N)nc2[nH]cnc12` [NU2067, O^6-(trans-3'-Hexenyl)guanine] yielded an IC50 of 38 µM.
`Nc1nc(OCC(O)CO)c2nc[nH]c2n1` (stereo not drawn) [NU2040, 2-amino-6-(2,3-dihydroxy) propoxypurine] gave an IC50 greater than 100 µM.
`C=CCOc1ncnc2nc[nH]c12` [NU2013, 6-Allyloxypurine] showed an IC50 of 110 µM.
`COCC(COc1nc(N)nc2nc[nH]c12)OC` (stereo not drawn) [NU2044, 2-amino-6-(2,3-dimethoy)propoxypurine] showed an IC50 greater than 100 µM.
With `C=CCOc1nc(N)nc2ncn(CC=C)c12` [NU2037, N^7,O^6 -Diallylguanine] the IC50 was greater than 1000 µM.
For `CCCCOc1nc(N)nc2nc[nH]c12` [NU2052, 2-amino-6-n-butoxypurine], the IC50 was 30 µM.
`COC(COc1nc(N)nc2[nH]cnc12)(OC)c1ccccc1` [NU2081, 2-amino-6-(2,2-dimethoxy)-2-phenylethyloxypurine] was tested, and the IC50 was greater than 100 µM.
Compound `C=CCOc1nc(N)nc2c1ncn2CC=C` [NU2036, N^9,O^6 -Diallylguanine] has an IC50 greater than 1000 µM.
For `C=CCOc1nc(Cl)nc2nc[nH]c12` [NU2051, 6-allyloxy-2-chloropurine], the IC50 was 400 µM.
`CCOc1nc(N)nc2nc[nH]c12` [NU2046, 2-amino-6-ethoxypurine] gave an IC50 of 100 µM.
`CCC(COc1nc(N)nc2[nH]cnc12)(OC)OC` [NU2050, 2-amino-6-(2,2-dimethoxy) butyloxypurine] showed an IC50 greater than 100 µM.
`Nc1nc(OCC2=CCCCC2)c2nc[nH]c2n1` [NU2076, O^6-(1'-Cyclohexenyl)methylguanine] showed an IC50 of 8 µM.
Work on `Nc1nc(OCC(=O)c2ccccc2)c2nc[nH]c2n1` [NU2033, O^6-(2-Oxo-2-phenylethyl)guanine] yielded an IC50 of 100 µM.
`C#CCOc1nc(N)nc2[nH]cnc12` [NU2031, O^6 -Propargylguanine] showed an IC50 of 60 µM.
For `Nc1nc(OCCc2ccccc2)c2nc[nH]c2n1` [NU2041, O^6-(2-Phenylethyl)guanine], the IC50 was 100 µM.

Same assay, conditions: in words, Table 1
`C=CCOc1nc(N)nc2c1ncn2Cc1ccccc1` [NU2038, O^6 -Allyl-N^9 -benzylguanine] was tested, and the “effect of side chain at N9 or N7, or halo at C2, on activity” value (“effect of side chain at N9 or N7” below) was “activity drastically diminishes”.
With `C=CCOc1nc(N)nc2ncn(CC=C)c12` [NU2037, N^7,O^6 -Diallylguanine] the “effect of side chain at N9 or N7” value was “activity drastically diminishes”.
`C=CCOc1nc(N)nc2c1ncn2CC=C` [NU2036, N^9,O^6 -Diallylguanine] was tested, and the “effect of side chain at N9 or N7” value was “activity drastically diminishes”.
`C=CCOc1nc(Cl)nc2nc[nH]c12` [NU2051, 6-allyloxy-2-chloropurine] was tested, and the “effect of side chain at N9 or N7” value was “activity drastically diminishes”.
